In patent US20180327723A1, “Production of Glycosylated Nootkatol in Recombinant Hosts” (Evolva SA, priority 2015, published 2018):

How the values were obtained:
[1] = In vitro de-glycosylation of nootkatol-glucoside by glycosidase enzymes, LC-MS; format: biochemical; details: water control, Delft fermentation medium, 2 hours
Procedure: Identical samples of 990 μl of Delft fermentation medium further comprising 0.1 mg nootkatol-glucoside (Nootkatol-Glc) were each treated with 10 μl of 12 exemplary glycosidase enzymes (listed in Table 3 below) (thus, 1% v/v) for 2 hours. After 2 hours, samples of the reaction mixture were taken, and the de-glycosylation reaction was terminated by addition of an equal volume of ethanol followed by freezing.
The resulting digested samples were analyzed by LC-MS on a BEH C18-column (100 mm×2.1 mm, 5 μm). Mobile phase A was 0.1% formic acid in water, and mobile phase B was 0.1% formic acid in acetonitrile. B concentration gradient was 0-1 min, 1%; 1-5 min, 100%; 5-7 min, 100%; 7-7.1 min, 1%; 7.1-9 min, 1%. The injection volume was 5 μL. Mass spectrometry analysis was carried out on an SQD1 detector (3.4 KV capillary, 37 V cone, 3 V extractor, 0.1 V RF lens) at a source temperature of 150° C. and desolvation temperature of 250° C., with full scan ESI+/−(100-900 amu scan range) and selective ion recording.

[2] = system: wild-type MATa strain ATCC 28383; assay: Growth-inhibitory effect on yeast, cell viability by plating (CFU); format: cell-based, S. cerevisiae; details: 5 h of exposure, plated on YPD
Procedure: A 20 mL seed culture of wild-type MATa strain ATCC 28383 was grown in SD-THUL medium (0.67 Bacto yeast nitrogen base without amino acids, 2% glucose, 0.14% yeast synthetic drop-out medium without uracil, tryptophan, histidine and leucine). The culture was grown for 24 h, and 2.5 mL of the culture was used to inoculate 7 equal batches of 50 mL fermentation medium (2% (NH4)2SO4, 2% KH2PO4, 0.1% NaCl, 0.6% MgSO4.7H2O, 0.4% yeast extract, 1 mL mineral solution [FeSO4.7H2O 0.028%, ZnSO4.7H2O 0.029%, CuSO4.5H2O 0.008%, Na2MoO4.2H2O 0.024%, CoCl2.6H2O 0.024%, MnSO4.H2O 0.017%, HCl 1 mL], 0.5 mL 50% glucose, 1.5 mL vitamin solution [biotin 0.001%, Ca-pantothenate 0.012%, inositol 0.06%, pyridoxine-HCl 0.012%, thiamine-HCl 0.012%], and 0.5 mL 10% CaCl2) in 250 mL baffled Ehrlenmeyer flasks.
In 6 flasks, nootkatol or glycosylated nootkatol (nootkatol+1 glucose) were added in final concentrations of 0.06, 0.125, and 0.5 g/L. The 7th flask was used as a control and was not treated with nootkatol or glycosylated nootkatol. The cultures were grown at 28° C. and 170 rpm, and the cell viability was measured after 5 h of exposure by plating 100 μL of 1/1000 dilution of cell culture on yeast extract peptone dextrose (YPD) plates.

yeast = details: Gavira et al., 2013, Metab Eng. 18:25-35; cited from earlier work
[3] = In vitro glycosylation of nootkatol by purified UGTs with UDP-glucose, LC-MS; format: biochemical; details: 5 mM nootkatol, 15 mM UDP-glucose, 5 μL purified enzyme, overnight at 30° C.
Excerpt: UGT85A1 (SEQ ID NO:9, SEQ ID NO:10), UGT76E1 (SEQ ID NO:11, SEQ ID NO:12), UGT73E1 (SEQ ID NO:13, SEQ ID NO:14), UGT73C3 (SEQ ID NO:15, SEQ ID NO:16), and UGT76E12 (SEQ ID NO:17, SEQ ID NO:18) were each cloned into a T7 promoter-based vector comprising a sequence coding for an N-terminal 6×His-tag. The vector backbone was linearized with restriction endonucleases, the UGT genes were amplified by PCR, and the constructs were verified by DNA sequencing.
Competent E. coli expression cells were transformed individually with a UGT-comprising plasmid. A colony from each transformation was inoculated individually in 6 mL NZCYM broth comprising an antibiotic. The pre-culture was incubated overnight at 37° C. and 220 rpm and used to inoculate 100 mL NZYCM broth with an antibiotic at an initial OD600 of 0.2. After growth at 37° C. until an OD600 of 0.6-0.8, the cells were induced for protein expression using 0.2 mM IPTG, followed by incubation at 20° C. and 120 rpm for 18-20 h.
Cells were harvested by centrifugation at approximately 4° C. and approximately 4000 g for 20 min and resuspended in 3 mL 10 mM Tris-HCl, pH 8.0 plus protease inhibitor. After cell disruption, 6 mL 1×HIS binding buffer (20 mM Tris-HCl, pH 7.5, 500 mM NaCl, and 10 mM imidazole) were added to the suspension. Cell crude extracts were centrifuged at 4° C. and approximately 4000 g for 30 min. The supernatant was collected, and 300 μL of nickel beads were added; the mixture was incubated with gentle mixing at 4° C. for 2 h. The mixture was centrifuged at 4° C. and approximately 1000 g for 3 min, the supernatant was removed, and the beads were resuspended with 3 mL 1×HIS binding buffer. This step was performed twice. The beads were then resuspended and mixed gently in 500 μL 1×HIS Binding Buffer. The mixture was then transferred into a cold Eppendorf tube, centrifuged at 4° C. and approximately 1000 g, and the supernatant was removed. The beads were resuspended in 400 μL elution buffer (20 mM Tris-HCl, pH 7.5, 500 mM NaCl, 250 mM imidazole), mixed gently, centrifuged at 4° C. and approximately 1000 g for 3 min, and the supernatant was collected. This step was performed three times to collect three elution fractions. Glycerol was added in a 1:1 ratio to each elution tube and protein solutions were stored at −80° C. The fractions were analyzed by SDS-PAGE and Western Blot. The fraction comprising the UGT with the highest purity was used for the subsequent in vitro assay.
UGT85A1 (SEQ ID NO:9, SEQ ID NO:10), UGT76E1 (SEQ ID NO:11, SEQ ID NO:12), UGT73E1 (SEQ ID NO:13, SEQ ID NO:14), UGT73C3 (SEQ ID NO:15, SEQ ID NO:16), and UGT76E12 (SEQ ID NO:17, SEQ ID NO:18) were employed for in vitro glycosylation of nootkatol in the presence of the sugar donor, UDP-glucose. The reaction was carried out in a final volume of 50 μL buffer (100 mM Tris, pH 8.0, 5 mM MgCl2, 1 mM KCl), 5 mM nootkatol in DMSO, 15 mM UDP-glucose, and 5 μL purified enzyme solution. The reaction was incubated overnight at 30° C. The sample was analyzed by LC-MS on a BEH C18-column (100 mm×2.1 mm, 5 μm). Mobile phase A was 0.1% formic acid in water; mobile phase B was 0.1% formic acid in acetonitrile. B concentration gradient was 0-1 min, 1%; 1-5 min, 100%; 5-7 min, 100%; 7-7.1 min, 1%; 7.1-9 min, 1%. The injection volume was 5 μL. […]

## C=C(C)C1CCC2=CC(OC3OC(CO)C(O)C(O)C3O)CC(C)C2(C)C1 (stereo not drawn) [glycosylated nootkatol]
[1]
  spontaneous de-glycosylation: weak spontaneous de-glycosylation
[2]; 0.5 g/L
  toxicity (cell viability): no toxicity was observed

## C=C(C)C1CCC2=CC(O)CC(C)C2(C)C1 (stereo not drawn) [nootkatol, 2,3,4,4a,5,6,7,8-octahydro-6-isopropenyl-4,4a-dimethyl-2-naphtalenol]
yeast
  cellular toxicity in yeast: cellular toxicity
[2]; 0.125 g/L
  cell death: ~99%

## C=C(C)[C@@H]1CCC2=CC(=O)C[C@@H](C)[C@]2(C)C1 [nootkatone, 4,4a,5,6,7,8-hexahydro-6-isopropenyl-4,4a-dimethyl-2(3H)-napthalenone]
yeast
  cellular toxicity in yeast: cellular toxicity

B1: UGT85A1: UDP-glycosyltransferase, Arabidopsis thaliana, SEQ ID NO: 9, SEQ ID NO: 10 (protein, listed as Arabidopsis thaliana)
chain: MGSQIIHNSQKPHVVCVPYPAQGHINPMMRVAKLLHARGFYVTFVNTVYNHNRFLRSRGSNALDGLPSFRFESIADGLPETDMDATQDITALCESTMKNCLAPFRELLQRINAGDNVPPVSCIVSDGCMSFTLDVAEELGVPEVLFWTTSGCAFLAYLHFYLFIEKGLCPLKDESYLTKEYLEDTVIDFIPTMKNVKLKDIPSFIRTTNPDDVMISFALRETERAKRASAIILNTFDDLEHDVVHAMQSILPPVYSVGPLHLLANREIEEGSEIGMMSSNLWKEEMECLDWLDTKTQNSVIYINFGSITVLSVKQLVEFAWGLAGSGKEFLWVIRPDLVAGEEAMVPPDFLMETKDRSMLASWCPQEKVLSHPAIGGFLTHCGWNSILESLSCGVPMVCWPFFADQQMNCKFCCDEWDVGIEIGGDVKREEVEAVVRELMDGEKGKKMREKAVEWQRLAEKATEHKLGSSVMNFETVVSKFLLGQKSQD
[3]
  Area-under-curve of the peak of glycosylated nootkatol (nootkatol+1 glucose) produced in vitro: 1632282
